# Measured values taken from the supplement of paper PMC10702517.
# ± gives the standard deviation.
# Experiments:
# [1] = chemical recovery from spiked human plasma; higher = better extraction; details: pooled human plasma
# [2] = chemical recovery into PDMS from spiked human plasma; higher = better extraction; details: pooled human plasma, extraction method: PES with PDMS
# [3] = chemical recovery by SPE of plasma after PDMS sampling; higher = better extraction; details: pooled human plasma, extraction method: HLB SPE of plasma after PES
# [4] = extraction method: SPE only (HLB 96-well)
# [5] = extraction method: SPE only (HLB 96-well), PES comparison experiment
# [6] = extraction method: PES+SPE (3 d PDMS equilibration then HLB SPE)
# [7] = extraction method: solvent precipitation (ACN + hexane)
# 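Wherever chemical recovery by SPE of plasma after PDMS sampling is given: over 400 spiked chemicals quantified by LC-HRMS or GC-HRMS via internal standard calibration, recovery relative to spike mix added to unspiked plasma extract to correct matrix effects.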
SMILES,"chemical recovery [1, 4]","chemical recovery [1, 5]",chemical recovery into PDMS ([2]; equilibration time (d): 6),chemical recovery by SPE of plasma ([3]; equilibration time (d): 1),chemical recovery by SPE of plasma ([3]; equilibration time (d): 3),chemical recovery by SPE of plasma ([3]; equilibration time (d): 6),"chemical recovery [1, 6]",chemical recovery into PDMS ([2]; equilibration time (d): 1),chemical recovery into PDMS ([2]; equilibration time (d): 3),"chemical recovery [1, 7]"
CCOP(=O)(OCC)OCC [Triethylphosphate],18.9 ± 3.4%,16.6 ± 7.5%,15 ± 4.8%,12.1 ± 7%,15.8 ± 2.1%,6.74 ± 1.1%,–,–,–,–
O=P(c1ccccc1)(c1ccccc1)c1ccccc1 [Triphenylphosphine oxide],54.9 ± 1.4%,51.6 ± 7.2%,43.5 ± 1.5%,8.28 ± 1.2%,8.53 ± 0.92%,6.26 ± 0.28%,58.6 ± 6.1%,41 ± 1.5%,44.6 ± 2.8%,–
CCCOP(=O)(OCCC)OCCC [Tripropyl phosphate],35 ± 7.1%,26.4 ± 7.2%,33.8 ± 2.4%,1.52 ± 1%,1.74 ± 0.42%,1.1 ± 0.16%,–,29.8 ± 6.3%,35.3 ± 6.6%,–
CC(CCl)OP(=O)(OC(C)CCl)OC(C)CCl (configuration not stated) [Tris(1-chloro-2-propyl)phosphate],–,55 ± 8.9%,43.7 ± 3.3%,–,1.7 ± 2%,3.1 ± 2.4%,–,34.1 ± 1.8%,44.3 ± 3.9%,–
O=P(OCCCl)(OCCCl)OCCCl [Tris(2-chloroethyl)phosphate],47.4 ± 2.1%,52.3 ± 5.5%,40.8 ± 2.8%,15 ± 1.6%,15 ± 1.8%,9.84 ± 0.88%,52.1 ± 4.5%,37.5 ± 1.4%,39.8 ± 1.5%,69.9 ± 2.8%
O=C1CCCC=CCCCCCCCCCC1 [Velvione],0.134 ± 0.12%,–,40.2 ± 13%,1.02 ± 7.1%,–,–,–,41.7 ± 2.9%,43.1 ± 12%,–
c1ccc(-c2cccc(-c3ccccc3)c2)cc1 [m-Terphenyl],0.761 ± 0.18%,2.42 ± 4.8%,101 ± 37%,1.91 ± 3.3%,2.9 ± 2.5%,2.74 ± 2.4%,–,90.2 ± 24%,86.8 ± 18%,34.3 ± 1.4%
c1ccc(-c2ccccc2-c2ccccc2)cc1 [o-Terphenyl],12.9 ± 2.8%,19.9 ± 5.7%,88.8 ± 18%,2.44 ± 1.2%,2.46 ± 0.63%,2.62 ± 0.75%,–,81.9 ± 26%,81.5 ± 8.2%,–
Cc1ccccc1N [o-Toluidine],6.06 ± 3.9%,6.06 ± 5.9%,0.369 ± 0.35%,4.67 ± 6.8%,1.92 ± 0.63%,1.2 ± 0.91%,–,0.669 ± 0.41%,0.533 ± 0.3%,17.2 ± 2.6%
Cc1ccc(S(N)(=O)=O)cc1 [p-Toluenesulfonamide],–,–,2.08 ± 0.47%,51.8 ± 5.5%,55.4 ± 4.7%,52.8 ± 0.84%,–,2.17 ± 0.29%,1.8 ± 0.5%,77.9 ± 3.1%
